Assay results published in publication PMC10501326, “A Phase I Study of the Pan-Notch Inhibitor CB-103 for Patients with Advanced Adenoid Cystic Carcinoma and Other Tumors” (Cancer Research Communications, 2023).
Several values for one entry are separate records, joined by “and”; a condition that tells them apart may be missing. Equal entries are not always repeated. Entries after “also recorded” stand apart in the source; their conditions may differ.

Tests used:
[1] = test system: advanced solid tumors, adenoid cystic carcinoma (ACC); test: Antitumor efficacy and survival (RECIST v1.1 response, CBR, PFS, OS); assay type: in vivo, human
Excerpt: The study enrolled adults with histologically confirmed, locally advanced and/or metastatic solid tumors who had progressed on at least one line of prior systemic therapy (except for ACC) and relapsed/refractory T-ALL/LBL for whom no standard therapy was available. In dose escalation, participants with solid tumors with known or frequent Notch pathway–activating mutations were eligible (breast cancer, gastrointestinal tumors, hepatocellular carcinoma, osteosarcoma, malignant glomus tumor, and ACC), while the confirmatory cohort planned to enroll participants with selected tumor types (including T-ALL/LBL) and confirmed Notch pathway activation. Key eligibility criteria included patients ≥18 years of age with evaluable disease, Eastern Cooperative Oncology Group (ECOG) performance status 0–1, able to swallow capsules, and adequate organ function. Participants were excluded if they had clinically significant cardiac disease or thromboembolic events within the preceding 6 months, and drugs prolonging the QTc were avoided. A complete list of eligibility criteria is outlined in the Supplementary Materials and Methods.
Safety was assessed via monitoring of DLTs during the first treatment cycle, and of AEs, physical exam, and clinical lab results (hematology, coagulation, blood chemistry, urinalysis, and cardiac markers) throughout the study (Supplementary Table S1). 12-lead electrocardiograms and Holter safety monitoring with periodic cardiac imaging was employed. Efficacy assessments used RECIST v1.1 applied to CT/MRI scans performed at screening and every 8 weeks; or evaluated complete remission with complete hematologic recovery by National Comprehensive Cancer Network guideline criteria for T-ALL/T-LBL. Adherence to study drug administration was evaluated using both patient diaries and capsule counts.
The primary endpoint for dose escalation was the number of patients experiencing DLT during the first 28-day cycle of CB-103 and for the confirmatory phase, the incidence rate, severity, and relationship of AEs to CB-103. Secondary endpoints included assessment of clinical benefit rate [CBR; defined as achieving complete and/or partial response and/or stable disease (SD) at prespecified benchmarks], duration of response, progression-free survival (PFS) and overall survival (OS), and plasma pharmacokinetics.
The objective of the BLRM design ([10]) was to determine the MTD defined as the highest dose with less than 25% risk of the true DLT rate being above 33%. The MTD was considered reached if one of the following criteria was fulfilled: (i) if the posterior probability of the true DLT rate in the target interval (16%–33%) of the MTD was >50%, and (ii) at least 6 patients were treated at the MTD. Under this model, and accounting for dropouts and some additional patients enrolled to each cohort, approximately 55 patients were anticipated to enroll in dose escalation and approximately 45 patients in the confirmatory phase. Data were reported using 95% confidence intervals (CI) and survival endpoints (PFS, OS) are reported from the time of first treatment to the first of progression or death summarized by Kaplan–Meier estimates. All statistical analyses were analyzed using SAS v9.4 software.

[2] = test system: Notch target genes (HEY1, IL7R alpha, NOTCH1, 2 and 4); test: Peripheral Notch target gene expression versus exposure (gene panel, in words); assay type: in vivo, human; conditions: patients with ACC on twice daily dosing (n = 13); up to 1,000 mg (500 mg twice daily)
Excerpt: Archival tumor tissue (not older than 6 months prior to screening) or fresh tumor biopsy was required to characterize Notch alteration status by targeted genomic sequencing and/or NICD1 expression (via IHC) among the confirmatory cohort at baseline. Repeat biopsy on cycle 2 day 15 and at disease progression was optional. Serial whole blood samples (and/or bone marrow samples and saliva among patients with T-ALL/T-LBL) were obtained on day 1 of cycles 1–6 to evaluate the dynamics of Notch gene expression. Peripheral blood was collected with PaxGene tubes and frozen at −20°C until processing. RNA was extracted (Qiagen RNeasy Micro kit) from peripheral whole blood and analyzed by Nanostring with percent change in expression levels reported with respect to baseline normalized values.
Percent change (%) in peripheral blood cell Notch target gene expression was monitored among a subset of patients with ACC receiving twice daily dosing (n = 13).

[3] = ACC confirmatory cohort (n = 12), 500 mg once daily
[4] = All solid tumor patients (n = 76)

In the case of `CC(C)(C)c1ccc(Oc2ccc(N)cn2)cc1` [CB-103], the “3-month PFS (95% CI)” value [1, 3] is reported as 10.9 (0.6–38.0), the “Best overall response: Complete response” value [1, 3] is reported as 0 n, % and the “Best overall response: Partial response” value [1, 3] is reported as 0 n, %. For the same compound, the “Best overall response: Progressive disease” value [1, 3] was 7 (58) n, %, the “Best overall response: Stable disease” value [1, 3] was 3 (25) n, % and the “Best overall response: Unevaluable” value [1, 3] was 2 (17) n, %. The “Clinical benefit rate, 3 months (95% CI)” value [1, 3] was 25.0 (5.5–57.2) — — %, the “Median OS (95% CI)” value [1, 3] was 5.4 (1.3–5.4) months and the “Median PFS (95% CI)” value [1, 3] was 1.4 (0.8–2.3) months. For the same compound, the “Overall survival: No. of deaths” value [1, 3] was 4 (33) n, %, the “Progression-free survival: No. of events” value [1, 3] was 10 (83) n, % and the “3-month PFS (95% CI)” value ([1]; All patients with ACC (n = 40)) was 46.8 (30.4–61.7). The “6-month OS (95% CI)” value ([1]; All patients with ACC (n = 40)) was 72.4 (53.1–84.8) %, the “6-month PFS (95% CI)” value ([1]; All patients with ACC (n = 40)) was 18.6 (7.9–32.8) % and the “9-month PFS (95% CI)” value ([1]; All patients with ACC (n = 40)) was 6.2 (1.1–17.8). For the same compound, the “12-month OS (95% CI)” value ([1]; All patients with ACC (n = 40)) was 57.3 (37.5–73.0) %, the “12-month PFS (95% CI)” value ([1]; All patients with ACC (n = 40)) was 6.2 (1.1–17.8) and the “Best overall response: Complete response” value ([1]; All patients with ACC (n = 40)) was 0 n, %. The “Best overall response: Partial response” value ([1]; All patients with ACC (n = 40)) was 0 n, %, the “Best overall response: Progressive disease” value ([1]; All patients with ACC (n = 40)) was 13 (33) n, % and the “Best overall response: Stable disease” value ([1]; All patients with ACC (n = 40)) was 23 n, % and 23 (58%) n, % and 23 (58) n, %. The “Best overall response: Unevaluable” value ([1]; All patients with ACC (n = 40)) was 4 (10) n, %, the “Clinical benefit rate, 3 months (95% CI)” value ([1]; All patients with ACC (n = 40)) was 57.5 (40.9–73.0) % and the “Clinical benefit rate, 6 months (95% CI)” value ([1]; All patients with ACC (n = 40)) was 27.5 (14.6–43.9) %. The “Clinical benefit rate, 9 months (95% CI)” value ([1]; All patients with ACC (n = 40)) was 2.5 (0.1–13.2) %, the “Median OS (95% CI)” value ([1]; All patients with ACC (n = 40)) was 18.4 months and the “Median PFS (95% CI)” value ([1]; All patients with ACC (n = 40)) was 2.5 (1.5–3.7) months. The “Overall survival: No. of deaths” value ([1]; All patients with ACC (n = 40)) was 15 (38) n, %, the “Progression-free survival: No. of events” value ([1]; All patients with ACC (n = 40)) was 35 (88) n, % and the “3-month PFS (95% CI)” value [1, 4] was 38.7 (26.5–50.6). For the same compound, the “6-month OS (95% CI)” value [1, 4] was 68.4 (54.4–78.9) %, the “6-month PFS (95% CI)” value [1, 4] was 15.5 (7.5–26.0) % and the “9-month PFS (95% CI)” value [1, 4] was 5.8 (1.7–14.3). For the same compound, the “12-month OS (95% CI)” value [1, 4] was 41.6 (28.0–54.7) %, the “12-month PFS (95% CI)” value [1, 4] was 3.9 (0.7–11.6) and the “Best overall response: Complete response” value [1, 4] was 0 n, %. For the same compound, the “Best overall response: Partial response” value [1, 4] was 0 n, %, the “Best overall response: Progressive disease” value [1, 4] was 29 (38) n, % and the “Best overall response: Stable disease” value [1, 4] was 37 (49%) n, % and 37 (49) n, %. For the same compound, the “Best overall response: Unevaluable” value [1, 4] was 10 (13) n, %, the “Clinical benefit rate, 3 months (95% CI)” value [1, 4] was 48.7 (37.0–60.4) % and the “Clinical benefit rate, 6 months (95% CI)” value [1, 4] was 15.8 (8.4–26.0) %. The “Clinical benefit rate, 9 months (95% CI)” value [1, 4] was 1.3 (0.0–7.1) %, the “Median OS (95% CI)” value [1, 4] was 9.2 (6.3–18.4) months and the “Median PFS (95% CI)” value [1, 4] was 1.9 (1.4–3.2) months. The “Overall survival: No. of deaths” value [1, 4] was 33 (43%) n, % and 33 (43) n, %, the “Progression-free survival: No. of events” value [1, 4] was 59 (78) n, % and the Objective responses ([1]; all 76 solid tumor patients) was “no objective responses”. For the same compound, the “Duration of stable disease on study” value ([1]; case: locoregionally recurrent ACC, NOTCH-activating mutation present) was 3 months, the “Tumor regression in right parapharyngeal mass” value ([1]; case: locoregionally recurrent ACC, NOTCH-activating mutation present (30 to 25 mm)) was −17% and the “Tumor regression in dominant liver lesion” value ([1]; case: patient with metastatic ACC with rapid progression prior to study entry (26.1–19.4 mm)) was −25.7%. For the same compound, the “Duration of stable disease on study” value ([1]; case: patient with metastatic ACC, dominant liver lesion) was 8 months, the “Median OS” value ([1]; heavily pretreated ACC cohort) was “under 2 years” and the “Duration of SD” value ([1]; one patient, NOTCH1-activated metastatic ACC with tumor BCL2 overexpression, 250 mg twice daily) was 3 months. The “ACC patients exhibiting SD” value ([1]; patients with ACC (n = 40)) was 58% and the “Peripherally measured Notch target gene expression levels versus exposure/dose” value [2] was “downregulation; also recorded: declined with increasing exposure”.
